We go through twelve compounds from patent publication US20250171400A1, “AZA-HETEROCYCLYL CARBOXAMIDE AND RELATED COMPOUNDS AND THEIR USE IN TREATING MEDICAL CONDITIONS” (X-BIOTIX THERAPEUTICS, INC., priority 2021, published 2025).

Structures are written as SMILES. pIC50: −log10 of the molar value. Values after ≈ are worked out from the molar mass of the structure shown. Read-outs that look alike come from different tables or passages of the source.

The target in experiment [1] is E. coli LpxC (Escherichia coli (strain K12), UniProt P0A725). Put plainly: in vitro substrate deacetylation assay for inhibition of LpxC (ADDA analysis). Format: biochemical. The note with it: 5 nM E. coli LpxC, 2.5 μM substrate, 1 hour at room temperature. How it is done: (§1) Exemplary compounds from the above Examples were tested for ability to inhibit LpxC activity using an in vitro substrate deacetylation assay with ADDA™ analysis. Assay procedures and results are described below.
Chain of E. coli LpxC (P0A725 whole entry): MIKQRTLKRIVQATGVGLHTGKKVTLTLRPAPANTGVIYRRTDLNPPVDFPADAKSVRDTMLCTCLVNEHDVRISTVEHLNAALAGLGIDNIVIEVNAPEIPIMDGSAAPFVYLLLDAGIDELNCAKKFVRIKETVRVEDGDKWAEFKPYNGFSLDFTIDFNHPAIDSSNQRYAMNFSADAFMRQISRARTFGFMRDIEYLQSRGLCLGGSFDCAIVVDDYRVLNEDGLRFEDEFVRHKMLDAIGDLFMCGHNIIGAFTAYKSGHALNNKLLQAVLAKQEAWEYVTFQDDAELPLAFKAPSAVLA
Dilutions of test compound were pre-incubated with 5 nM P. aeruginosa or E. coli LpxC for 10 minutes at room temperature in 50 mM NaH2PO4, 500 mM sucrose, 0.2 mg/mL BSA, pH 7.2 and <1% DMSO. Reactions were initiated by the addition of 2× substrate (UDP-3-O—(R-3-hydroxydecanoyl)-N-acetylglucosamine, Carbosynth Ltd, UK, for P. aeruginosa LpxC and UDP-3-O—(R-3-hydroxymyristoyl)-N-acetylglucosamine, BOC Sciences, USA, for E. coli LpxC), in 50 mM NaH2PO4, 0.5 mg/mL BSA, pH 7.2, to a final concentration of 2.5 μM. Reactions proceeded for 1 hour at room temperature prior to quenching with and equal volume of 2% acetic acid.
For ADDA™ analysis, an aliquot of assay sample was withdrawn from each well of the 384-well plate and applied to a Hypercarb cartridge (Optimize Technologies, USA) under conditions designed to retain analytes of interest. Analytes were eluted using 1:1:2 acetone:acetonitrile:water containing 5 mM ammonium acetate then analysed by triple-quadrupole mass spectrometry. Mass spectrometry was carried out using electrospray ionization in negative ion mode. Daughter ion peaks representing detected substrate (P. aeruginosa: parent Q1 mass=775.8 amu, daughter Q3 mass=384.7 amu E. coli: parent Q1 mass=833.0 amu, daughter Q3 mass=385.0 amu, collision energy=analyte specific, dwell time=50 ms) were identified using a multiple-reaction monitoring protocol.
Total activity (0% inhibition) was obtained from reactions containing no compound, and 100% inhibition is defined as reactions in the presence of 1 μM CHIR-090 (N-[(1S,2R)-2-hydroxy-1-[(hydroxyamino)carbonyl]propyl]-4-[2-[4-(4-morpholinylmethyl)phenyl]ethynyl]-benzamide). For IC50 determinations, peak areas of the substrate and product were compared to compute the proportion of substrate reacted by the LpxC enzyme at each compound concentration. The fractional activity was converted to percentage inhibition and plotted against compound concentration in ActivityBase™ and fit using a four-parameter logistic using non-linear regression to yield the IC50 value.

In experiment [2] the target is P. aeruginosa LpxC (Pseudomonas aeruginosa (strain ATCC 15692 / DSM 22644 / CIP 104116 / JCM 14847 / LMG 12228 / 1C / PRS 101 / PAO1), UniProt P47205). Put plainly: biochemical. The class given is biochemical. To be noted: 5 nM P. aeruginosa LpxC, 2.5 μM substrate, 1 hour at room temperature. How it is done: as §1
For ADDA™ analysis, an aliquot of assay sample was withdrawn from each well of the 384-well plate and applied to a Hypercarb cartridge (Optimize Technologies, USA) under conditions designed to retain analytes of interest. Analytes were eluted using 1:1:2 acetone:acetonitrile:water containing 5 mM ammonium acetate then analysed by triple-quadrupole mass spectrometry. Mass spectrometry was carried out using electrospray ionization in negative ion mode.
For IC50 determinations, peak areas of the substrate and product were compared to compute the proportion of substrate reacted by the LpxC enzyme at each compound concentration.

Experiment [3] concerns E. coli BW25113 isogenic mutant deficient in acrA mediated efflux. Briefly: broth microdilution minimum inhibition concentration assay. The class given is cell-based. The note with it: Escherichia coli, BW25113, read-out: E. coli KO MIC. On the procedure: (§2) Exemplary compounds from the above Examples were tested to determine their minimum inhibitory concentration (MIC) for exemplary strains of Eschericia and Pseudomonas bacteria using broth microdilution methods. Assay procedures and results are described below.
(§3) Broth microdilution assays were conducted according to Clinical and Laboratory Standards Institute guidelines (CLSI, M07-A11: Clinical and Laboratory Standards Institute. Methods for Dilution Antimicrobial Susceptibility Tests for Bacteria that Grow Aerobically; Approved Standard—11th Edition. Wayne, PA: CLSI, 2018.). Briefly, a 0.5 McFarland standard suspension was made from bacterial isolates on non-selective, solid media. The inocula were adjusted to give a bacterial concentration of 1×10^6 CFU/mL. Serial doubling-dilutions of each compound were prepared in cation-adjusted Mueller-Hinton broth (Sigma-Aldrich) in 96-well microdilution plates. A 50 μL aliquot of the inoculum was added to each microdilution plate and, within 15 minutes, incubated at 37° C. in air for 16-20 h. […] The test was controlled by the determination of piperacillin MIC against both E. coli ATCC 25922 and P. aeruginosa ATCC 27853 and ensuring accordance with the ranges published in CLSI supplementary document M100 (CLSI, M100Ed29: Clinical and Laboratory Standards Institute. Performance Standards for Antimicrobial Susceptibility Testing, 29th Edition. Wayne, PA: CLSI, 2018.).
(§4) Multiple enterobacteriaceae strains were tested, including E. coli ATCC 25922 and K. pneumoniae ATCC 43816. WT E. coli BW25113 was tested with an isogenic mutant deficient in acrA mediated efflux by clean deletion. WT P. aeruginosa PAO1 was tested with an isogenic mutant deficient in MexA mediated efflux by clean deletion.
(§5) Experimental results are provided in Table 4, which provides MIC values for wild-type E. coli BW25113 (“E. coli WT MIC”), an isogenic mutant deficient in acrA mediated efflux by clean deletion (“E. coli KO MIC”), wild-type P. aeruginosa PAO1 (“P. aeruginosa WT MIC”), and an isogenic mutant deficient in MexA mediated efflux by clean deletion (“[…]”).

In experiment [4] the test system is P. aeruginosa PAO1 isogenic mutant deficient in MexA mediated efflux. The experiment is described as above. Format: cell-based. To be noted: Pseudomonas aeruginosa, PAO1, read-out: P. aeruginosa KO MIC. How it is done:
as §2, §3, §4, §5

Experiment [5] concerns wild-type E. coli BW25113. The description is as above. The class given is cell-based. The note with it: Escherichia coli; wild-type E. coli BW25113, 37° C. 16-20 h; read-out: E. coli WT MIC. How it is done: as §2, §3, §4, §5
Experiment [6] concerns wild-type P. aeruginosa PAO1. The description is as above. Format: cell-based. The note with it: Pseudomonas aeruginosa. On the procedure:
as §2, §3, §4, §5

[7] abbreviates: wild-type P. aeruginosa PAO1, 37° C. 16-20 h, read-out: P. aeruginosa WT MIC.
[8] abbreviates: PAO1, read-out: P. aeruginosa WT MIC.

`CC(C)C(=O)N1C[C@H](NC(=O)[C@@H]2C[C@@H](C#N)CN2)C[C@@H]1C(=O)NCc1ccc(C#Cc2ccc(CN3CCOCC3)cc2)cc1` [Example 9AC, (2R,4R)-4-((2S,4R)-4-Cyanopyrrolidine-2-carboxamido)-1-isobutyryl-N-(4-((4-(morpholinomethyl)phenyl)ethynyl)benzyl)pyrrolidine-2-carboxamide]: the pIC50 in experiment [1] was 5.60 to 6.30; in experiment [2], over 7.30. Besides, the minimum inhibitory concentration (MIC) in experiment [3], in experiment [4], in experiment [5] and in experiment [6] (setting [7]) was over 100 µM in each case.

For `Cc1cc(C#Cc2ccc(CN3CCOCC3)cc2)ccc1C(=O)NC[C@H]1C[C@@H](NC(=O)[C@@H]2C[C@H](F)CN2)CN1C(=O)C1CC1` [Example 7, (2S,4S)—N-((3R,5R)-1-(Cyclopropanecarbonyl)-5-((2-methyl-4-((4-(morpholinomethyl)phenyl)ethynyl)benzamido)methyl)pyrrolidin-3-yl)-4-fluoropyrrolidine-2-carboxamide], the negative-log IC50 (pIC50) in experiment [1] is over 6.30; in experiment [2] it was 7.00 to 7.30. Also, the MIC was under 20 µM in experiment [3], under 20 µM in experiment [4], under 20 µM in experiment [5] and over 100 µM in experiment [6] (setting [8]).

Turning to `COCCN1C[C@H](NC(=O)[C@@H]2C[C@H](F)CN2)C[C@@H]1C(=O)NCc1ccc(C#CC#CC2CC2)cc1` [Example 9AM, (2R,4R)—N-(4-(Cyclopropylbuta-1,3-diyn-1-yl)benzyl)-4-((2S,4S)-4-fluoropyrrolidine-2-carboxamido)-1-(2-methoxyethyl)pyrrolidine-2-carboxamide], the pIC50 in experiment [1] is 5.00 to 5.60; in experiment [2] it was 6.00 to 7.00. Also, the MIC in experiment [3], in experiment [4], in experiment [5] and in experiment [6] (setting [8]) was over 100 µM throughout.

On to `CC(C)C(=O)N1C[C@H](NC(=O)[C@@H]2C[C@H](O)CN2)C[C@@H]1C(=O)NCc1ccc(C#Cc2ccc(CN3CCOCC3)cc2)cc1` [Example 9T, (2R,4R)-4-((2S,4S)-4-Hydroxypyrrolidine-2-carboxamido)-1-isobutyryl-N-(4-((4-(morpholinomethyl)phenyl)ethynyl)benzyl)pyrrolidine-2-carboxamide], for which the values for the pIC50 in experiment [1] and in experiment [2] were 5.00 to 5.60 and 6.00 to 7.00, respectively. In addition, the MIC in experiment [3], in experiment [4], in experiment [5] and in experiment [6] (setting [8]) was over 100 µM throughout.

`CC(C)C(=O)N1C[C@H](NC(=O)[C@H]2NCC[C@@H]2O)C[C@@H]1C(=O)NCc1ccc(C#CC#CC2CC2)cc1` [Example 9AB]: the figures for the negative logarithm of the IC50 (pIC50) in experiment [1] and in experiment [2] were 5.60 to 6.30 and over 7.30, respectively. Moreover, the minimum inhibitory concentration (MIC) in experiment [3] was 20 to 100 µM (≈ 9.81 to 49.1 µg/mL); in experiment [4], 20 to 100 µM (≈ 9.81 to 49.1 µg/mL); in experiment [5], over 100 µM; in experiment [6] (setting [8]) it was over 100 µM.

Consider `O=C(NC[C@H]1C[C@@H](NC(=O)[C@@H]2C[C@H](F)CN2)CN1C(=O)C1CC1)c1ccc(C#Cc2ccccc2)cc1` [Example 9AX], for which the figures for the pIC50 in experiment [1] and in experiment [2] were over 6.30 and over 7.30, respectively. Also, the minimum inhibitory concentration (MIC) was under 20 µM in experiment [3], under 20 µM in experiment [4], under 20 µM in experiment [5] and over 100 µM in experiment [6] (setting [7]).

As for `CNCCC(=O)N1C[C@H](NC(=O)[C@@H]2C[C@H](F)CN2)C[C@@H]1C(=O)NCc1ccc(C#CC#CC2CC2)cc1` [Example 9Q], the pIC50 in experiment [1] is 5.00 to 5.60; in experiment [2] it was 7.00 to 7.30. In addition, the minimum inhibitory concentration (MIC) in experiment [3], in experiment [4], in experiment [5] and in experiment [6] (setting [8]) was over 100 µM in each case.

As to `O=C(N[C@@H]1C[C@H](C(=O)NCc2ccc(C#Cc3ccc(CN4CCOCC4)cc3)cc2)N(C(=O)C2CC2)C1)[C@@H]1C[C@H](F)CN1` [Example 9AJ], the pIC50 in experiment [1] is over 6.30; in experiment [2], over 7.30. For the same compound, the MIC was under 20 µM in experiment [3], under 20 µM in experiment [4], 20 to 100 µM (≈ 12 to 60.2 µg/mL) in experiment [5] and over 100 µM in experiment [6] (setting [7]).

For the compound `CC(C)C(=O)N1C[C@H](NC(=O)[C@H]2NCC[C@H]2O)C[C@@H]1C(=O)NCc1ccc(C#CC#CC2CC2)cc1` [Example 9W, (2R,4R)—N-(4-(cyclopropylbuta-1,3-diyn-1-yl)benzyl)-4-((2S,3R)-3-hydroxypyrrolidine-2-carboxamido)-1-isobutyrylpyrrolidine-2-carboxamide], the results for the negative logarithm of the IC50 (pIC50) in experiment [1] and in experiment [2] were under 5.00 and 6.00 to 7.00, respectively. Besides, the MIC in experiment [3], in experiment [4], in experiment [5] and in experiment [6] (setting [8]) was over 100 µM in each case.

As to `O=C(O)CN1C[C@H](NC(=O)[C@@H]2C[C@H](F)CN2)C[C@@H]1C(=O)NCc1ccc(C#CC#CC2CC2)cc1` [Example 9AN, 2-((2R,4R)-2-((4-(Cyclopropylbuta-1,3-diyn-1-yl)benzyl)carbamoyl)-4-((2S,4S)-4-fluoropyrrolidine-2-carboxamido)pyrrolidin-1-yl)acetic acid], the figures for the negative logarithm of the IC50 (pIC50) in experiment [1] and in experiment [2] were over 6.30 and 7.00 to 7.30, respectively. For the same compound, the minimal inhibitory concentration (MIC) in experiment [3] is over 100 µM; in experiment [4], 20 to 100 µM (≈ 9.61 to 48.1 µg/mL); in experiment [5] it was over 100 µM; in experiment [6] (setting [8]), over 100 µM.

For the compound `COC(=O)N1C[C@H](NC(=O)[C@@H]2C[C@H](F)CN2)C[C@@H]1C(=O)NCc1ccc(C#Cc2ccc(CN3CCOCC3)cc2)cc1` [Example 9AG], the figures for the pIC50 in experiment [1] and in experiment [2] were over 6.30 and over 7.30, respectively. Further, the minimal inhibitory concentration (MIC) is under 20 µM in experiment [3], under 20 µM in experiment [4], 20 to 100 µM (≈ 11.8 to 59.2 µg/mL) in experiment [5] and over 100 µM in experiment [6] (setting [7]).

Turning to `O=C(N[C@@H]1C[C@H](C(=O)NCc2ccc(C#CC#CC3CC3)cc2)N(C(=O)C2CCNCC2)C1)[C@@H]1C[C@H](F)CN1` [Example 9P], the negative logarithm of the IC50 (pIC50) was 5.00 to 5.60 in experiment [1] and 6.00 to 7.00 in experiment [2]. Besides, the minimal inhibitory concentration (MIC) in experiment [3], in experiment [4], in experiment [5] and in experiment [6] (setting [8]) was over 100 µM throughout.
